Laboratory results published in patent US20250092035A1, “ISOCITRATE DEHYDROGENASE 1 INHIBITORS AND METHODS OF USE THEREOF” (THE WISTAR INSTITUTE OF ANATOMY AND BIOLOGY, priority 2022, published 2025).

Legend:
HCT116 cells = test: Clonogenic growth of colon cancer cells; type: cell-based, human; conditions: low Mg2+ and glucose
Method: (§1) Clonogenic assay. 1000-2000 cells per well were plated in six-well plates. Media was not changed during experiments unless indicated. […] Upon completion of the experiments, colonies were fixed in a reagent containing 80% methanol and stained with 0.5% crystal violet. To determine relative growth, dye was extracted from stained colonies with 10% acetic acid and the associated absorbance measured at 600 nm using a Microplate Reader (GloMax Explorer system, Promega).

MiaPaCa-2 PC cells = test: ROS levels (DCFDA assay); type: cell-based, human
Method: ROS and 8-OHdG quantification. Cells were incubated in a 96-well plate with 10 μM H2-DCFDA (Life Technology, D399) for 45 min in serum-free media to detect total intracellular ROS. For mitochondrial-specific ROS, cells were incubated with 5 μM MitoSOX Red (Life Technologies, M36008) for 30 min in serum-free media. Cells were washed with PBS, and fluorescence measured according to manufacturer instructions using a Microplate Reader (GloMax Explorer system, Promega). 8-OHdG was measured according to the manufacturer's instructions (Abcam, AB201734). Readouts were normalized to cell number.

wtIDH2 = molecular target: T1, wtIDH2 (Homo sapiens, UniProt P48735); test: Cell-based IDH2 activity in MiaPaCa-2 PC cells
T1 construct: endogenous in cells; host or cells: MiaPaCa-2 pancreatic cancer cells (IDH1 silenced by siRNA)
T1 sequence (P48735 40-452): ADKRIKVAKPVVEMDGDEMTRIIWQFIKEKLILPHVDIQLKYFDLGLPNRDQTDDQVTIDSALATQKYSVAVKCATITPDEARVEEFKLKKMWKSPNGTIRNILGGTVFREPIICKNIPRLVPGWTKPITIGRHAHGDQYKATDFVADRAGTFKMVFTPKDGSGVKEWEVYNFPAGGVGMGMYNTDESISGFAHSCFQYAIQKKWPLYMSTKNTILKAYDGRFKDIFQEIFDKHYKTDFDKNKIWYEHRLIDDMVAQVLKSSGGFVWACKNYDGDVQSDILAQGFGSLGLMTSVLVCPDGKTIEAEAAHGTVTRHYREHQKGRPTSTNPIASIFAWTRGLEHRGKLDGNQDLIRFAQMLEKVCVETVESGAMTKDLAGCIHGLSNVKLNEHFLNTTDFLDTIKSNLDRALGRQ
Method: IDH activity assay. Cell-based wtIDH activity is measured by quantitation of IDH-dependent NADPH synthesis (Abcam, ab 102528). The reaction measures the activity of both IDH1 and IDH2 isoenzymes. IDH1 activity is specifically measured using the same assay after transient siRNA silencing of IDH2 (Extended Data FIG. 6i). The opposite approach is used to estimate IDH2 activity. All readouts were normalized to cell number. Cell-free wtIDH1 activity was performed by a fluorometric assay measuring NADPH levels at 355/460 nm. The assay contained 0.25 nM human recombinant IDH1 (RD systems), 30 μM isocitrate, and 30 μM NADP^+ in 20 μL of 100 mM Tris-HCL, pH8, 0.2 mM DTT, 0.05% CHAPS, and MgCl2 at the indicated levels. Formation of NADPH was measured over 40 min at 5 min intervals.

Human PC cells = test: Clonogenic growth of human PC cells; type: cell-based; conditions: low Mg2+ and glucose
Method: as §1

For `N#Cc1ccnc(N2C(=O)CC[C@H]2C(=O)N(c2cncc(F)c2)[C@H](C(=O)NC2CC(F)(F)C2)c2ccccc2Cl)c1` [AG-120, ivosidenib], the response in culture (HCT116 cells) was “responded to the drug”, the tolerability (HCT116 xenografts; female, athymic nude (Foxn1 nu/nu), mouse, in vivo) was “tolerated AG-120 treatment extremely well” and the tumor growth (HCT116 xenografts; oral, vs control arm) was “significantly diminished tumor growth”. The “intracellular ROS” value (MiaPaCa-2 PC cells; higher Mg2+ levels) was “No such effect”, the “intracellular ROS” value (MiaPaCa-2 PC cells; low Mg2+ combined with low glucose) was “surge in intracellular ROS” and the “inhibitory activity against wtIDH2” value (wtIDH2) was “no inhibitory activity”. The cell survival (Human PC cells) was “markedly impaired survival”.
